Key:
cell line CHO C6-13 = assay: Luciferase expression in CRE-pretest cell line CHO C6-13; details: for change in luciferase expression/activity: 3 hours treatment, FIG. 33
Description: The transfection by electroporation was carried out as follows: after removal of the medium the cells were detached from the surface by means of a trypsin/PBS solution, suspended in medium and pelleted for 5 minutes at 250×g. The cells were washed in HBS (10 mM HEPES pH 7.4, 150 mM NaCl) and pelleted by centrifuging. The cells were suspended in HBS in a density of 1×10^7 cells/ml. 0.8 ml of cell suspension were mixed with 20 μg of DNA of the plasmid pADneo2-C6-BGL linearised with ScaI and transferred into an electroporation dish. […] After the electroporation the cells were diluted in the medium mentioned above, 20,000 cells per 90 mm culture dish was sown and incubated overnight at 37° C.
Two batches of each were treated with 20 μM forskolin and incubated for a further 5 hours at 37° C. Then the medium was removed from all the cells and the cells were washed with PBS.
Cells of the cell line CHO C6-13 were treated for 3 hours with various substances which alter the intracellular concentration of cAMP or IP3 /DAG or simulate a change in concentration, and also treated with receptor-specific agonists which influence the above-mentioned signal transduction mechanisms.

luciferase = luciferase (Photinus pyralis, UniProt P08659); assay: Effect of reagent component concentration on luciferase measuring signal; type: biochemical
Description: The effect of varying the concentration of ATP, luciferin, MgSO4. 7H2 O, dithiothreitol (DDT), β-mercaptoethanol (BME), sodium tripolyphosphate (NaTPP), Triton X-100 and the pH on the luciferase measuring signal obtained was determined (Table 2). The measurements obtained 3 minutes after the addition of the reagent were used for comparison (given as percentage of the maximum measuring signal obtained).

[1] = target: human dopamine D1-receptor (Homo sapiens, UniProt P21728); assay: Luciferase activity in dopamine D1-receptor test cell line CHO 13D1-38
Description: The cell line CHO C6-13 characterised above was transfected, as described under a), by electroporation with plasmid pAD-CMV2:D1, which had previously been linearised with FspI.
For the use of test cell lines in an automatic screening system with a high throughput rate it is advantageous to use microtitre plates having 96 wells per plate. For this purpose, 60,000 cells (CHO C6-13 or CHO 13D1-38) were sown in 200 μl medium per well in light-impermeable microtitre plates coated with tissue culture
(Microlite™, Dynatech Labroatories) and incubated overnight at 37° C. Then various chemicals were added to the cells and they were incubated for a certain length of time (usually 3 hours). After removal of the medium the cells were washed with PBS, lysed in 1% Triton X-100 and the luciferase activity was measured in a 96-well luminometer (ML-1000, Dynatech) (FIG. 36).
In order to simulate a screening process in which the test substances are preferably supplied in a uniform solvent, a final concentration of 1% DMSO was used in this experiment.

luciferase, sequence (P08659 whole entry): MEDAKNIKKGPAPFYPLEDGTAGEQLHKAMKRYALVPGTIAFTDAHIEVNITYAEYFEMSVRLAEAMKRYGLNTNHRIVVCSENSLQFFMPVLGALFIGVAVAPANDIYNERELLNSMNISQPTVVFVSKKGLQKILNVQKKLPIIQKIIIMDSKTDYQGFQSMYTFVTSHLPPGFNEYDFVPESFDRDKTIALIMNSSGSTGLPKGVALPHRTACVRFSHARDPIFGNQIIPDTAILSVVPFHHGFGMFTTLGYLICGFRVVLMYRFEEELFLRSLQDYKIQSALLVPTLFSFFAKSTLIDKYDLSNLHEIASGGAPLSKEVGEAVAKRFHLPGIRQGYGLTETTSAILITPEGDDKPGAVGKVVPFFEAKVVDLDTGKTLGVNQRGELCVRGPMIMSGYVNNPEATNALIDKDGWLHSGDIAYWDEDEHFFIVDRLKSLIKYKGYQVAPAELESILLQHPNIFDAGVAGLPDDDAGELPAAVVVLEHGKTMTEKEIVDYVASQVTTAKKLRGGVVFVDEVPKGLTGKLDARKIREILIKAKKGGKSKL
human dopamine D1-receptor, sequence (P21728 whole entry): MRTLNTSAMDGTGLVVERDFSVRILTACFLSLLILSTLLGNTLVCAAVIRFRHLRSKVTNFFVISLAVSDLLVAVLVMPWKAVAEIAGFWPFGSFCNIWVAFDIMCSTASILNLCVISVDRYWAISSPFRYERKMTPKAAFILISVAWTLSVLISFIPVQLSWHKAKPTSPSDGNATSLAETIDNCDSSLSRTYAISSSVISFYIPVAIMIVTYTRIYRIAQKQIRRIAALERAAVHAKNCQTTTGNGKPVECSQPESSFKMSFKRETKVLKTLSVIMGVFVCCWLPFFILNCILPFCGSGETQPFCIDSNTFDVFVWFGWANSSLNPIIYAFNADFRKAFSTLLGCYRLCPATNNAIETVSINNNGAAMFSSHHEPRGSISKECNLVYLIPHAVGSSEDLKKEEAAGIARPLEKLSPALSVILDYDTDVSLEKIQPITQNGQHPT

Q: How did the “change in luciferase expression/activity” value (cell line CHO C6-13) turn out when `CC(C)Cn1c(=O)n(C)c(=O)c2[nH]cnc21` [IBMX, isobutylmethylxanthine] was run?
A: increased

Q: What about the “shift in the forskolin dosage-activity curve to lower forskolin concentrations” value (cell line CHO C6-13; with IBMX) of the same molecule?
A: one order of magnitude

Q: What about the “influence on maximum induction of the luciferase reporter gene” value (cell line CHO C6-13; with forskolin) of the same molecule?
A: not significantly influenced

Q: `O=C(O)[C@H]1CSC(c2nc3ccc(O)cc3s2)=N1` [Lucifenn] was tested. Which “% max. signal (luciferase)” value (luciferase; luciferin 1.32 mg/l) did it give?
A: 42%

Q: What about the “% max. signal (luciferase)” value (luciferase; luciferin 1.98 mg/l) of the same molecule?
A: 58%

Q: And the “% max. signal (luciferase)” value (luciferase; luciferin 2.96 mg/l)?
A: 65%

Q: And the “% max. signal (luciferase)” value (luciferase; luciferin 4.44 mg/l)?
A: 75%

Q: And the “% max. signal (luciferase)” value (luciferase; luciferin 6.67 mg/l)?
A: 88%

Q: What about the “% max. signal (luciferase)” value (luciferase; luciferin 10.0 mg/l) of the same molecule?
A: 95%

Q: What about the “% max. signal (luciferase)” value (luciferase; luciferin 15.0 mg/l) of the same molecule?
A: 100%

Q: For `CCCC(=O)Nc1ncnc2c1ncn2[C@@H]1O[C@@H]2COP(=O)(O)O[C@H]2[C@H]1OC(=O)CCC` [dibutyryl-cAMP], which “change in luciferase expression/activity” value (cell line CHO C6-13) is on record?
A: increased

Q: For `O=P(O)(O)OP(=O)(O)OP(=O)(O)O` [NaTPP, sodium tripolyphosphate], which “% max. signal (luciferase)” value (luciferase; NaTPP 5.01 mg/l) is on record?
A: 54%

Q: And the “% max. signal (luciferase)” value (luciferase; NaTPP 15.8 mg/l)?
A: 64%

Q: What about the “% max. signal (luciferase)” value (luciferase; NaTPP 50.0 mg/l) of the same molecule?
A: 82%

Q: What about the “% max. signal (luciferase)” value (luciferase; NaTPP 158 mg/l) of the same molecule?
A: 100%

Q: What about the “% max. signal (luciferase)” value (luciferase; NaTPP 500 mg/l) of the same molecule?
A: 75%

Q: How did the “max. signal (luciferase)” value (luciferase; BME 0.59 ml/l) turn out when `OCCS` [BME, β-mercaptoethanol] was run?
A: 80%

Q: And the “max. signal (luciferase)” value (luciferase; BME 0.88 ml/l)?
A: 82%

Q: What about the “max. signal (luciferase)” value (luciferase; BME 1.32 ml/l) of the same molecule?
A: 68%

Q: And the “max. signal (luciferase)” value (luciferase; BME 1.98 ml/l)?
A: 84%

Q: And the “max. signal (luciferase)” value (luciferase; BME 2.96 ml/l)?
A: 86%

Q: And the “max. signal (luciferase)” value (luciferase; BME 4.44 ml/l)?
A: 100%

Q: What about the “max. signal (luciferase)” value (luciferase; BME 6.67 ml/l) of the same molecule?
A: 94%

Q: What about the “max. signal (luciferase)” value (luciferase; BME 10.0 ml/l) of the same molecule?
A: 93%

Q: `Nc1ncnc2c1ncn2[C@@H]1O[C@H](COP(=O)(O)OP(=O)(O)OP(=O)(O)O)[C@@H](O)[C@H]1O` [ATP, adenosine triphosphate] was tested. Which “% max. signal (luciferase)” value (luciferase; ATP 0.06 g/l) did it give?
A: 61%

Q: What about the “% max. signal (luciferase)” value (luciferase; ATP 0.13 g/l) of the same molecule?
A: 95%

Q: What about the “% max. signal (luciferase)” value (luciferase; ATP 0.29 g/l) of the same molecule?
A: 100%

Q: And the “% max. signal (luciferase)” value (luciferase; ATP 0.65 g/l)?
A: 98%

Q: What about the “% max. signal (luciferase)” value (luciferase; ATP 1.47 g/l) of the same molecule?
A: 83%

Q: And the “% max. signal (luciferase)” value (luciferase; ATP 3.30 g/l)?
A: 78%

Q: `C[N+](C)(C)CCOC(N)=O` [carbachol] was tested. Which “change in luciferase expression/activity” value (cell line CHO C6-13) did it give?
A: did not bring about any significant change in the luciferase activity

Q: Which “change in luciferase expression/activity” value (cell line CHO C6-13) does the source give for `CNc1ccc2oc(C[C@H]3O[C@@]4(CC[C@H]3C)O[C@H]([C@H](C)C(=O)c3ccc[nH]3)[C@H](C)C[C@H]4C)nc2c1C(=O)O` [A23187] here?
A: did not bring about any significant change in the luciferase activity

Q: Which “% max. signal (luciferase)” value (luciferase; MgSO4 0.35 g/l) does the source give for `O.O.O.O.O.O.O.O=S(=O)([O-])[O-].[Mg+2]` [MgSO4, magnesium sulphate-heptahydrate] here?
A: 20%

Q: What about the “% max. signal (luciferase)” value (luciferase; MgSO4 0.53 g/l) of the same molecule?
A: 48%

Q: What about the “% max. signal (luciferase)” value (luciferase; MgSO4 0.79 g/l) of the same molecule?
A: 64%

Q: And the “% max. signal (luciferase)” value (luciferase; MgSO4 1.19 g/l)?
A: 77%

Q: And the “% max. signal (luciferase)” value (luciferase; MgSO4 1.78 g/l)?
A: 77%

Q: And the “% max. signal (luciferase)” value (luciferase; MgSO4 2.67 g/l)?
A: 100%

Q: What about the “% max. signal (luciferase)” value (luciferase; MgSO4 4.00 g/l) of the same molecule?
A: 100%

Q: What does the source list for `CC(C)C[C@H]1C(=O)N2CCC[C@H]2[C@]2(O)O[C@](NC(=O)[C@@H]3C=C4c5cccc6[nH]c(Br)c(c56)C[C@H]4N(C)C3)(C(C)C)C(=O)N12` [bromocryptin]?
A: change in luciferase expression/activity (cell line CHO C6-13): did not bring about any significant change in the luciferase activity; luciferase induction at the highest concentration (attributed to cell toxicity or low pH) ([1]; 100 μM bromocryptin): reversal of luciferase induction; activity on luciferase induction ([1]; FIG. 38B): dosage-dependent activity
